Reference: patent US20170190671A1, “BIS(ARYL)CATECHOL DERIVATIVES AS HERBICIDES” (E I DU PONT DE NEMOURS AND COMPANY, priority 2014, published 2017)

How the values were obtained:
Format in all cases: in vivo
[1] = test system: blackgrass (Alopecurus myosuroides); test: Test A postemergence; details: 0 to 100 scale
From the text: (§1) Seeds of plant species selected from barnyardgrass (Echinochloa crus-galli), kochia (Kochia scoparia), ragweed (common ragweed, Ambrosia elatior), Italian ryegrass (Lolium multiflorum), large (Lg) crabgrass (Digitaria sanguinalis), giant foxtail (Setaria faberii), morningglory (Ipomoea spp.), pigweed (Amaranthus retroflexus), velvetleaf (Abutilon theophrasti), wheat (Triticum aestivum), and corn (Zea mays) were planted into a blend of loam soil and sand and treated preemergence with a directed soil spray using test chemicals formulated in a non-phytotoxic solvent mixture which included a surfactant.
(§2) At the same time, plants selected from these crop and weed species and also blackgrass (Alopecurus myosuroides), and galium (catchweed bedstraw, Galium aparine) were planted in pots containing the same blend of loam soil and sand and treated with postemergence applications of test chemicals formulated in the same manner. Plants ranged in height from 2 to 10 cm and were in the one- to two-leaf stage for the postemergence treatment. Treated plants and untreated controls were maintained in a greenhouse for approximately 10 days, after which time all treated plants were compared to untreated controls and visually evaluated for injury. Plant response ratings, summarized in Table A, are based on a 0 to 100 scale where 0 is no effect and 100 is complete control. A dash (-) response means no test result.

[2] = test system: ragweed (common ragweed, Ambrosia elatior); test: Test A postemergence; details: 0 to 100 scale
From the text: as §1, §2

[3] = test system: pigweed (Amaranthus retroflexus); test: Test A postemergence; details: 0 to 100 scale
From the text: as §1, §2

[4] = test system: barnyardgrass (Echinochloa crus-galli); test: Test A postemergence; details: 0 to 100 scale
From the text: as §1, §2

[5] = test system: Italian ryegrass (Lolium multiflorum); test: Test A postemergence; details: 0 to 100 scale
From the text: as §1, §2

kochia (Kochia scoparia) [6] = test: Test A postemergence; details: 0 to 100 scale
From the text: as §1, §2

[7] = test system: galium (catchweed bedstraw, Galium aparine); test: Test A postemergence; details: 0 to 100 scale
From the text: as §1, §2

corn (Zea mays) = test: Test A postemergence; details: 0 to 100 scale
From the text: as §1, §2

[8] = test system: giant foxtail (Setaria faberii); test: Test A postemergence; details: 0 to 100 scale
From the text: as §1, §2

[9] = test system: wheat (Triticum aestivum); test: Test A postemergence; details: 0 to 100 scale
From the text: as §1, §2

[10] = test system: ragweed (common ragweed, Ambrosia elatior); test: Test A preemergence; details: for Plant response rating, Ragweed: 0 to 100 scale
From the text: as §1, §2

[11] = test system: pigweed (Amaranthus retroflexus); test: Test A preemergence; details: for Plant response rating, Pigweed: 0 to 100 scale
From the text: as §1, §2

[12] = test system: barnyardgrass (Echinochloa crus-galli); test: Test A preemergence; details: for Plant response rating, Barnyardgrass: 0 to 100 scale
From the text: as §1, §2

[13] = test system: Italian ryegrass (Lolium multiflorum); test: Test A preemergence; details: for Plant response rating, Ryegrass, Italian: 0 to 100 scale
From the text: as §1, §2

kochia (Kochia scoparia) [14] = test: Test A preemergence; details: for Plant response rating, Kochia: 0 to 100 scale
From the text: as §1, §2

[15] = test system: giant foxtail (Setaria faberii); test: Test A preemergence; details: for Plant response rating, Foxtail, Giant: 0 to 100 scale
From the text: as §1, §2

[16] = test system: barnyardgrass (Echinochloa crus-galli); test: Test B flooded paddy; details: 250 g ai/ha, Flood, 13 to 15 days, scale 0 (no effect) to 100 (complete control)
From the text: (§3) At time of treatment, test pots were flooded to 3 cm above the soil surface, treated by application of test compounds directly to the paddy water, and then maintained at that water depth for the duration of the test. Treated plants and controls were maintained in a greenhouse for 13 to 15 days, after which time all species were compared to controls and visually evaluated. […] A dash (-) response means no test result.

[17] = test system: sedge, umbrella (small-flower umbrella sedge, Cyperus difformis); test: Test B flooded paddy; details: 250 g ai/ha, Flood, 13 to 15 days, scale 0 (no effect) to 100 (complete control)
From the text: as §3

[18] = test system: ducksalad (Heteranthera limosa); test: Test B flooded paddy; details: 250 g ai/ha, Flood, 13 to 15 days, scale 0 (no effect) to 100 (complete control)
From the text: as §3

rice (Oryza sativa) = test: Test B flooded paddy; details: 250 g ai/ha, Flood, 13 to 15 days, scale 0 (no effect) to 100 (complete control)
From the text: as §3

[19] = 31 g ai/ha, 0 to 100 scale (0 no effect, 100 complete control)

SMILES | Plant response rating, Blackgrass ([1]; 125 g ai/ha) | Plant response rating, Ragweed ([2]; 125 g ai/ha) | Plant response rating, Pigweed ([3]; 125 g ai/ha) | Plant response rating, Barnyardgrass ([4]; 125 g ai/ha) | Plant response rating, Ryegrass, Italian ([5]; 125 g ai/ha) | Plant response rating, Kochia (kochia (Kochia scoparia) [6]; 125 g ai/ha) | Plant response rating, Galium ([7]; 125 g ai/ha) | Plant response rating, Corn (corn (Zea mays); 125 g ai/ha) | Plant response rating, Foxtail, Giant ([8]; 125 g ai/ha) | Plant response rating, Wheat ([9]; 125 g ai/ha) | Plant response rating, Ragweed ([10]; 125 g ai/ha) | Plant response rating, Pigweed ([11]; 125 g ai/ha) | Plant response rating, Barnyardgrass ([12]; 125 g ai/ha) | Plant response rating, Ryegrass, Italian ([13]; 125 g ai/ha) | Plant response rating, Kochia (kochia (Kochia scoparia) [14]; 125 g ai/ha) | Plant response rating, Foxtail, Giant ([15]; 125 g ai/ha) | Plant response rating, Barnyardgrass [16] | Plant response rating, Sedge, Umbrella [17] | Plant response rating, Ducksalad [18] | Plant response rating, Rice (rice (Oryza sativa)) | further results
N#Cc1cccc(Oc2ncc(Cl)cn2)c1Oc1ccc(C(F)(F)F)nc1 [Compound 13] | 0 | 0 | 10 | 0 | 0 | 0 | 0 | 0 | 0 | 0 | 0 | 0 | 0 | 0 | 0 | 0 | 0 | 0 | 0 | 0 | Plant response rating, Blackgrass ([1]; 500 g ai/ha): 0; Plant response rating, Ragweed ([2]; 500 g ai/ha): 0; Plant response rating, Pigweed ([3]; 500 g ai/ha): 40; Plant response rating, Barnyardgrass ([4]; 500 g ai/ha): 0; Plant response rating, Ryegrass, Italian ([5]; 500 g ai/ha): 0; Plant response rating, Kochia (kochia (Kochia scoparia) [6]; 500 g ai/ha): 0; Plant response rating, Galium ([7]; 500 g ai/ha): 0; Plant response rating, Corn (corn (Zea mays); 500 g ai/ha): 0; Plant response rating, Foxtail, Giant ([8]; 500 g ai/ha): 0; Plant response rating, Wheat ([9]; 500 g ai/ha): 0; Plant response rating, Ragweed ([10]; 500 g ai/ha): 0; Plant response rating, Pigweed ([11]; 500 g ai/ha): 0; Plant response rating, Barnyardgrass ([12]; 500 g ai/ha): 0; Plant response rating, Ryegrass, Italian ([13]; 500 g ai/ha): 0; Plant response rating, Kochia (kochia (Kochia scoparia) [14]; 500 g ai/ha): 0; Plant response rating, Foxtail, Giant ([15]; 500 g ai/ha): 0
N#Cc1cccc(Oc2ncc(Cl)cn2)c1Oc1ccc(C(F)(F)F)cn1 [Compound 14] | 30 | 0 | 50 | 0 | 0 | 0 | 50 | 0 | 20 | 0 | 0 | 80 | 0 | 0 | 0 | 0 | 0 | 0 | 30 | 15 | Plant response rating, Blackgrass ([1]; 31 g ai/ha): 0; Plant response rating, Ragweed ([2]; 31 g ai/ha): 0; Plant response rating, Pigweed ([3]; 31 g ai/ha): 0; Plant response rating, Barnyardgrass ([4]; 31 g ai/ha): 0; Plant response rating, Ryegrass, Italian ([5]; 31 g ai/ha): 0; Plant response rating, Kochia (kochia (Kochia scoparia) [6]; 31 g ai/ha): 0; Plant response rating, Galium ([7]; 31 g ai/ha): 40; Plant response rating, Corn (corn (Zea mays); 31 g ai/ha): 0; Plant response rating, Foxtail, Giant ([8]; 31 g ai/ha): 0; Plant response rating, Wheat ([9]; 31 g ai/ha): 0; Ragweed plant response rating [10, 19]: 0; Pigweed plant response rating [11, 19]: 40; Barnyardgrass plant response rating [12, 19]: 0; Ryegrass, Italian plant response rating [13, 19]: 0; Kochia plant response rating (kochia (Kochia scoparia) [14]; [19]): 0; Foxtail, Giant plant response rating [15, 19]: 0
